# ChEMBL document CHEMBL5335838, “The medicinal chemistry evolution of antibody-drug conjugates” (RSC Med Chem, 2024)
# Assays:
# [1] = Permeability of the compound by PAMPA assay; format: ADME; conditions: read-out: permeability
# Glucocorticoid receptor = molecular target: T1, Glucocorticoid receptor (Homo sapiens, UniProt P04150); experiment: Inhibition of glucocorticoid receptor (unknown origin)
# T1 sequence (P04150 whole entry): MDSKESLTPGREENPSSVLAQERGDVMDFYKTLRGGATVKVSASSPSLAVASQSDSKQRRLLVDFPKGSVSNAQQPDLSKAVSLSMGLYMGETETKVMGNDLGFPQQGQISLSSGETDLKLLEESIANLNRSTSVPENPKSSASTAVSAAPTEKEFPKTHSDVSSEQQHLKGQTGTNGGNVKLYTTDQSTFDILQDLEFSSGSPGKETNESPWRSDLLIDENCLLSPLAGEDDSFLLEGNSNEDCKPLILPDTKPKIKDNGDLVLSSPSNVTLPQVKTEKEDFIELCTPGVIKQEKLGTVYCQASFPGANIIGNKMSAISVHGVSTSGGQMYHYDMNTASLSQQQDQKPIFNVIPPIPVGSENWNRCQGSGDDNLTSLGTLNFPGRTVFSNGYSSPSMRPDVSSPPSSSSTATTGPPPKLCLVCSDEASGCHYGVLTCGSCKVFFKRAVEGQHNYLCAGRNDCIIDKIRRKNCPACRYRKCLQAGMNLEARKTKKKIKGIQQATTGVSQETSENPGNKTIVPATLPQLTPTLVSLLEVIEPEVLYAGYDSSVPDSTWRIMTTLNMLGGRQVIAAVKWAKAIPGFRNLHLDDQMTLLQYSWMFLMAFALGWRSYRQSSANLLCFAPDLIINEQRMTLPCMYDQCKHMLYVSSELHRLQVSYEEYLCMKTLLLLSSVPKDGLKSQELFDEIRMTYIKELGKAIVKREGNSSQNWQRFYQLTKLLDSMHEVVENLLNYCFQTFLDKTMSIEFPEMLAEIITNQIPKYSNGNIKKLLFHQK
# [2] = Plasma protein binding in mouse assessed as unbound fraction; format: ADME, cell-free
# [3] = Permeability of compound at pH 7.4 by PAMPA assay; format: ADME; conditions: read-out: permeability
# [4] = Solubility of compound at pH 7.4; format: physicochemical; conditions: buffer
# Cytochrome P450 1A2 = molecular target: T2, Cytochrome P450 1A2 (Homo sapiens, UniProt P05177); experiment: Inhibition of CYP1A2 (unknown origin); format: ADME
# T2 sequence (P05177 whole entry): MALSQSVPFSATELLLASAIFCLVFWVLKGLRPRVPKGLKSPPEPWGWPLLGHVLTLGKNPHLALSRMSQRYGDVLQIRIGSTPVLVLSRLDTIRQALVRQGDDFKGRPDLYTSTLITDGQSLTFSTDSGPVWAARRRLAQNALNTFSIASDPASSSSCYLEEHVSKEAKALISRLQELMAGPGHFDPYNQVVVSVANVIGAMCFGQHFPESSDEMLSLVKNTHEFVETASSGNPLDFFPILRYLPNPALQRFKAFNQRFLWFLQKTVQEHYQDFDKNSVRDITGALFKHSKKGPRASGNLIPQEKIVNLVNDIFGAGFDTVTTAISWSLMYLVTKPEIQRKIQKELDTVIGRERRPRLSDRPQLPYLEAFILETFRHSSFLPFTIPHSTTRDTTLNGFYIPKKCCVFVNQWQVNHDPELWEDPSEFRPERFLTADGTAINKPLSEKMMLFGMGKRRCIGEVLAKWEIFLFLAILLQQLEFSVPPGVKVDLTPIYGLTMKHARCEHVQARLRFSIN
# Cytochrome P450 2C9 = Cytochrome P450 2C9 (Homo sapiens, UniProt P11712); experiment: Inhibition of CYP2C9 (unknown origin); format: ADME
# Cytochrome P450 2C9, sequence (P11712 whole entry): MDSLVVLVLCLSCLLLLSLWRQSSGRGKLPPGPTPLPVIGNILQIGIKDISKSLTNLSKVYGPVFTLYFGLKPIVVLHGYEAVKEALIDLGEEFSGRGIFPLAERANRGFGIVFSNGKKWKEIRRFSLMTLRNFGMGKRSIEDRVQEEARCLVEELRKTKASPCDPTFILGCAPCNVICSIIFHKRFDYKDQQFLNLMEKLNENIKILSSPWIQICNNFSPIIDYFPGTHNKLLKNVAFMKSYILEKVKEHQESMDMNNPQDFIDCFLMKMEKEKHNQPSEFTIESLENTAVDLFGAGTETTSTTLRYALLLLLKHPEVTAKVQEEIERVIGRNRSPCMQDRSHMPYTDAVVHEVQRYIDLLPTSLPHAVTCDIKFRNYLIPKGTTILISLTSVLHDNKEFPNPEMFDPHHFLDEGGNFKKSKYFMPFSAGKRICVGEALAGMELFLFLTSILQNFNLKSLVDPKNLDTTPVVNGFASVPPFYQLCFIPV
# Cytochrome P450 2D6 = Cytochrome P450 2D6 (Homo sapiens, UniProt P10635); experiment: Inhibition of CYP2D6 (unknown origin); format: ADME
# Cytochrome P450 2D6, sequence (P10635 whole entry): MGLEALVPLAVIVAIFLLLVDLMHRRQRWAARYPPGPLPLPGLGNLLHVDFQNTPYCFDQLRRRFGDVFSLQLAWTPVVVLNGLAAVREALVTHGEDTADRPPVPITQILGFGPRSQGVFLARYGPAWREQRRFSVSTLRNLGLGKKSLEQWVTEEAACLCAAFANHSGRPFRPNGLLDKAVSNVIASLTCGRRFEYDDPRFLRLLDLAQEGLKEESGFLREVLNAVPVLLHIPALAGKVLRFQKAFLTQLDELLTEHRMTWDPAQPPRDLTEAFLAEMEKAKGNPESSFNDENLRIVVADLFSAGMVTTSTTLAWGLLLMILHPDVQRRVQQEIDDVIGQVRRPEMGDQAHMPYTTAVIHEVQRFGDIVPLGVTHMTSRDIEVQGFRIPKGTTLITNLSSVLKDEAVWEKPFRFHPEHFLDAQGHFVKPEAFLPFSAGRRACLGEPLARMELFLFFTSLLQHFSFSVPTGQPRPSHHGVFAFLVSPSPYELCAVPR
# Cytochrome P450 3A4 = Cytochrome P450 3A4 (Homo sapiens, UniProt P08684); experiment: Inhibition of CYP3A4 (unknown origin); format: ADME
# Cytochrome P450 3A4, sequence (P08684 whole entry): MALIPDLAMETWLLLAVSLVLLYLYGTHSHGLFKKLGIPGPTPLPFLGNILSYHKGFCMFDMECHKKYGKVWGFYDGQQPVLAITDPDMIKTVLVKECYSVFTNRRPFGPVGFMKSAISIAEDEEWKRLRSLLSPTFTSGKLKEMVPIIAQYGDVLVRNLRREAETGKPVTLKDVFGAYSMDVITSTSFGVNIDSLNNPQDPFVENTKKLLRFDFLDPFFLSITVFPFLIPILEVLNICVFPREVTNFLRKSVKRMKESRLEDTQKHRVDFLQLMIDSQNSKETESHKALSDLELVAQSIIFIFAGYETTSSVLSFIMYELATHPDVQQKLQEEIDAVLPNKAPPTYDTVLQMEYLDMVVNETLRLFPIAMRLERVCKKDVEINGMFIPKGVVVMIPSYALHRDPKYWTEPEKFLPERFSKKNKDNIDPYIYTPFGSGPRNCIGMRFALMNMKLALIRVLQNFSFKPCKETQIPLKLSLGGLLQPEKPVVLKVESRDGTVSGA
# [5] = Half life in CD1 mouse at 3 mg/kg, iv; format: ADME, organism-based; conditions: in vivo
# [6] = AUC in CD1 mouse at 3 mg/kg, iv; format: ADME, organism-based; parameters: dose 3 mg/kg, route iv; conditions: in vivo
# [7] = Plasma clearance in CD1 mouse at 3 mg/kg, iv; format: ADME, organism-based; conditions: in vivo
# [8] = Volume of distribution at steady state in CD1 mouse at 3 mg/kg, iv; format: ADME, organism-based; conditions: in vivo, read-out: Vdss
# [9] = Half life in CD1 mouse at 10 mg/kg, po; format: ADME, organism-based; conditions: in vivo
# [10] = Tmax in CD1 mouse at 10 mg/kg, po; format: ADME, organism-based; conditions: in vivo
# [11] = Cmax in CD1 mouse at 10 mg/kg, po; format: ADME, organism-based; parameters: dose 10 mg/kg, route po; conditions: in vivo
# [12] = AUC (0 to infinity) in CD1 mouse at 10 mg/kg, po; format: ADME, organism-based; parameters: dose 10 mg/kg, route po; conditions: in vivo
# [13] = Oral bioavailability in CD1 mouse at 10 mg/kg; format: ADME, organism-based; conditions: in vivo
# [14] = Half life in Sprague-Dawley rat at 0.5 mg/kg, iv; format: ADME, organism-based; conditions: in vivo
# [15] = AUC in Sprague-Dawley rat at 0.5 mg/kg, iv; format: ADME, organism-based; parameters: dose 0.5 mg/kg, route iv; conditions: in vivo
# [16] = Plasma clearance in Sprague-Dawley rat at 0.5 mg/kg, iv; format: ADME, organism-based; conditions: in vivo
# [17] = Volume of distribution at steady state in Sprague-Dawley rat at 0.5 mg/kg, iv; format: ADME, organism-based; conditions: in vivo, read-out: Vdss
# [18] = Half life in Sprague-Dawley rat at 3 mg/kg, po; format: ADME, organism-based; conditions: in vivo
# [19] = Tmax in Sprague-Dawley rat at 3 mg/kg, po; format: ADME, organism-based; conditions: in vivo
# [20] = Cmax in Sprague-Dawley rat at 3 mg/kg, po; format: ADME, organism-based; parameters: dose 3 mg/kg, route po; conditions: in vivo
# [21] = AUC (0 to infinity) in Sprague-Dawley rat at 3 mg/kg, po; format: ADME, organism-based; parameters: dose 3 mg/kg, route po; conditions: in vivo
# [22] = Oral bioavailability in Sprague-Dawley rat at 3 mg/kg; format: ADME, organism-based; conditions: in vivo
structure (smiles),measurement,setting,value
C[C@]12C=CC(=O)C=C1CC[C@@H]1[C@@H]2[C@@H](O)C[C@@]2(C)[C@H]1C[C@H]1O[C@@H](c3ccc(CN4CCNCC4)cc3)O[C@]12C(=O)CO,Papp,[1],0.23 ×10⁻⁶ cm/s
C[C@]12C=CC(=O)C=C1[C@@H](F)C[C@H]1[C@@H]3C[C@H]4O[C@@H](c5ccc(CN6CCNCC6)cc5)O[C@@]4(C(=O)CO)[C@@]3(C)C[C@H](O)[C@@]12F,Papp,[1],0.22 ×10⁻⁶ cm/s
C[C@]12C=CC(=O)C=C1CC[C@@H]1[C@@H]2[C@@H](O)C[C@@]2(C)[C@H]1C[C@H]1O[C@@H](C3CCCCC3)O[C@]12C(=O)CO [DESISOBUTYRYLCICLESONIDE],IC50,Glucocorticoid receptor,0.002 µM
C[C@]12C=CC(=O)C=C1CC[C@@H]1[C@@H]2[C@@H](O)C[C@@]2(C)[C@H]1C[C@H]1O[C@@H](c3ccc(Cc4cccc(N)c4)cc3)O[C@]12C(=O)CO,Fu,[2],0.01%
same,Papp,[3],0.2 ×10⁻⁶ cm/s
same,solubility,[4],1.33 µM
same,IC50,Cytochrome P450 1A2,> 40 µM
same,IC50,Cytochrome P450 2C9,18.4 µM
same,IC50,Cytochrome P450 2D6,> 40 µM
same,IC50,Cytochrome P450 3A4,< 0.02 µM
same,half-life,[5],3.82 h
same,AUC,[6],3580 ng·h/mL
same,clearance,[7],14.2 mL/min/kg
same,Vd,[8],2.91 L/kg
same,half-life,[9],3.56 h
same,Tmax,[10],1.42 h
same,Cmax,[11],40 ng/mL
same,AUC,[12],0.21 µg/h/mL
same,bioavailability,[13],1%
same,half-life,[14],1.2 h
same,AUC,[15],220 ng·h/mL
same,clearance,[16],37.8 mL/min/kg
same,Vd,[17],2.55 L/kg
same,half-life,[18],2.86 h
same,Tmax,[19],0.25 h
same,Cmax,[20],80 ng/mL
same,AUC(0-inf),[21],220 ng·h/mL
same,bioavailability,[22],16.8%
